Experimental data taken from patent US6680344B1, “Method of treating hair loss using diphenylmethane derivatives” (The University of Texas Southwestern Medical Center, priority 1999, dated 2004).

Tested on: heart/body weight ratio of male Sprague Dawley rats
Experiment: Cardiotoxicity assay (heart-to-body weight ratio)
Format: in vivo, rat
Details: 250 μg/kg subcutaneously once daily for 28 days, cardiac-sparing where C is less than 1.3
Source text: The cardiotoxicity assay measures the potential of a test compound to adversely affect the cardiovascular system. As thyroid hormone (T3) damages the cardiovascular system, the heart enlarges. See, e.g., Gomberg-Maitland et al., “Thyroid hormone and Cardiovascular Disease”, American Heart Journal, Vol. 135(2), pp. 187-196 (1998); Klein and Ojamaa, “Thyroid Hormone and the Cardiovascular System”, Current Opinion in Endocrinology and Diabetes, Vol. 4, pp.341-346 (1997); and Klemperer et al., “Thyroid Hormone Therapy and Cardiovascular Disease”, Progress in Cardiovascular Diseases, Vol. 37 (4), pp. 329-336 (1996). This increases the weight of the heart relative to whole body weight. The cardiotoxicity assay herein below is used to test compounds for potentially adverse cardiac effects by measuring their effect on the heart-to-body weight ratio.
Two groups each of six male Sprague Dawley rats (Harlan Sprague Dawley, Inc., Indianapolis, Ind.) (each weighing from approximately 220 grams to 235 grams) are utilized. The first group is a vehicle control group and the second group is a test compound group. The length of the assay is 30 days, with treatment of vehicle or test compound in vehicle daily for 28 of those days as described below.
Prior to initiation of the assay, each rat is allowed to acclimate to standard environmental conditions for 5 days. […]

In the case of `N[C@@H](Cc1cc(I)c(Oc2cc(I)c(O)c(I)c2)c(I)c1)C(=O)O` [T4, thyroxine], the “cardiac-sparing classification (index C = RT/RV, heart/body ratio of test compound group over vehicle control group)” value is reported as “not cardiac-sparing”.
